Remaining activity and IC50 data for two molecules are collected here from patent US20190119300A1, “SUBSTITUTED AND FUSED 6-MEMBERED PROTEASE ACTIVATED RECEPTOR 4 (PAR-4) ANTAGONISTS” (Vanderbilt University, priority 2016, published 2019).

Test [1] addresses T1, PAR-4 (Homo sapiens, UniProt Q96RI0).
T1 construct: endogenous in cells; host or cells: washed platelets
T1 sequence (Q96RI0 18-385): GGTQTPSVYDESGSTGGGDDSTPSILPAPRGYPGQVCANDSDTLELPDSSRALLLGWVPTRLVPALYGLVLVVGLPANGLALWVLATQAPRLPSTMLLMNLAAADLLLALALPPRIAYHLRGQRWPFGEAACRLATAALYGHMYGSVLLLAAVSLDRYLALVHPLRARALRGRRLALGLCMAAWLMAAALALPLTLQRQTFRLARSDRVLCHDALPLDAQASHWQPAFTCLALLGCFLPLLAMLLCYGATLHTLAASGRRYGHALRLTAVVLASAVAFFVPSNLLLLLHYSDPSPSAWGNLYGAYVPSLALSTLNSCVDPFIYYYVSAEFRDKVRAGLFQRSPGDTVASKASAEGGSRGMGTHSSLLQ
The experiment in a line: PAC-1 binding assay, washed platelets stimulated with PAR-4-AP (flow cytometry). The conditions noted are these: PAR-4-AP stimulation; for remaining activity at 10 µM: 10 μM antagonist, 100% = DMSO control stimulated, read-out: PAR-4 AP % Max PAC-1 binding (10 μM); for IC50: read-out: PAR-4 AP % Max PAC-1 binding (IC50 [M]). It counts as cell-based. As for the experimental part: (§1) PAC-1 Binding assay: 60 μL of washed platelets (Tyrodes buffer containing 0.1% BSA) at a concentration of 0.15×10^8 platelets/mL were added to 5 mL round bottom polystyrene tubes (BD, Franklin Lakes, N.J.). FITC conjugated PAC-1 (BD Biosciences, San Jose, Calif.) antibody was diluted (to the manufacturers recommended concentration) in Tyrode's buffer containing 0.1% BSA. 40 μL of diluted antibody was added to the platelets and allowed to incubate for 5 minutes. Platelets were pre-treated with indicated concentrations of antagonist or DMSO control for 20 minutes (the final DMSO concentration was 0.5%) followed by addition of PAR-1-AP (GL Biochem, Shanghai, China), PAR-4-AP, or gamma-thrombin for 10 minutes. Platelet activity was quenched by the addition ice cold 1.5% paraformaldehyde followed by dilution in 1× phosphate buffered saline. Platelets were stored up to 18 hours at 4° C. before flow cytometric analysis. Analysis was carried out on a BD FACS Canto II or BD LSRII (Franklin Lakes, N.J.). Fluorescent intensity was determined for at least 20,000 events within the platelet gate (forward scatter versus side scatter). Data was collected and analyzed via FACS DiVa or FlowJo software. Flow cytometric data analysis was conducted by the following method. The DMSO-vehicle treated control was subtracted from each data point. 100% response for PAR-4-AP was determined for each individual as the DMSO treated control stimulated with PAR-4-AP, PAR-1-AP, or gamma-thrombin. Data was plotted in GraphPad PRISM v.5.0. For compounds with a notable reduction in PAC-1 binding response, dose response curves and IC50 values were generated using the inhibitory sigmoidal dose response ‘variable slope’ parameter. Results were plotted as mean±SEM.
(Flow cytometry measures light scatter and fluorescence of single cells or particles in a stream.)

Test [2] concerns the target T1, PAR-4. Kind of test: PAC-1 binding assay, washed platelets stimulated with 100 nM gamma-thrombin (flow cytometry). It is filed as cell-based. The settings on record: 100 nM γ-thrombin stimulation.
Text: Gamma-thrombin is a proteolytic product of alpha-thrombin cleavage by a serine protease. Cleavage results in the disruption of exosite I which interacts directly with the hirudin-like domain of its primary substrates fibrinogen and protease-activated receptor 1 (PAR1). […] See Soslau, G., Class, R., Morgan, D. A., Foster, C., Lord, S. T., Marchese, P., and Ruggeri, Z. M. (2001) Unique pathway of thrombin-induced platelet aggregation mediated by glycoprotein Ib, The Journal of biological chemistry 276, 21173-21183. Gamma-thrombin (Enzyme Research Laboratories, South Bend, Indiana) is produced by trypsin-sepharose cleavage of alpha-thrombin. To neutralize alpha-thrombin contamination, stock solutions of gamma-thrombin are preincubated with 1 unit/mL hirudin prior 100 fold dilution into the sample for platelet stimulation. […] Single point screens and concentration response curves are conducted with 316 nanomolar or 100 nanomolar gamma-thrombin using PAC1 and CD62p binding.
as §1

One may read the IC50 as the concentration that inhibits the measured activity by half. Regarding `COc1nn2cc(-c3cccc(OCc4csc(-c5ccccc5)n4)c3)nc2s1` [Example B47], the remaining activity at 10 µM on PAR-4 [1] is -0.27%. Moreover, the IC50 at PAR-4 [1] is 4.32e-08 M; at PAR-4 [2] it was not below 1000 nM.

Consider `COc1nn2cc(-c3cccc(Cl)c3)nc2s1` [Example B23], for which, at PAR-4 [1], the remaining activity at 10 µM is -1.07%. Also, the half-inhibitory concentration (IC50) on PAR-4 [1] was 6.9e-08 M; at PAR-4 [2], more than 1000 nM.
